{"source": "paper PMC9021288", "about": "(Nature Communications, 2022)", "key": {"3-day MTD2 rat study": {"test": "3-day MTD2 rat study", "type": "in vivo, Wistar Han rats", "details": "300, 600, 1000 mg/kg/day, three days", "excerpt": "See the summary of the study design in Supplementary Table 31. Nine-week-old Wistar (Crl:WI (Han)) rats were obtained from Charles River Laboratories (Domaine des Oncins, Saint-Germain-Nuelles, France). […] Animals were examined daily for any altered clinical signs, body weights, and food consumption. Blood samples were taken at different timepoints after the test item administration, and toxicokinetic exposure assessed under the defined experimental conditions and analyzed using Phoenix (version 6.4 and 1.4) (Supplementary Table 32). Measurements included hematology and clinical chemistry measurements. Animals were euthanized and necropsied at the end of the dosing period. At necropsy, major organ systems and tissues were collected and weighed and then examined for gross lesions as well as for microscopic changes."}, "[1]": {"tested_on": "TA98, TA100, TA102, TA1535, TA1537", "experimental": "Safety studies were performed by commercial services using their standard protocols. […] Genotoxicity was investigated using the Ames test (Bacterial Reverse Mutation Assay) (Covance Laboratories Ltd, North Yorkshire, England). In vitro mammalian cell micronucleus screening assay was studied in human peripheral blood lymphocytes (BioReliance Corporation, Rockville, USA). Cardiotoxicity was determined against the hERG channel in an automated patch clamp assay using the Qpatch or against the hNaV 1.5, hKV 1.5 and hCaV 1.2 using a manual patch-clamp technique (Metrion Biosciences, Cambridge, UK). Cytotoxicity in human and rat primary hepatocytes was assessed using the CellTiter-Blue assay performed by commercial services (KaLy-Cell). The viability of HepG2 cells was monitored through the addition of 1 mM resazurin. Following 6 h incubation, the relative amount of reduced resazurin was detected in a fluorimeter and compared to the assay controls (vehicle: 0.1% DMSO and positive control: 10 µM puromycin)."}}, "note": "Like-named read-outs stand apart in the source and are kept apart here.", "data": [{"smiles": "C[C@@H](CNC(=O)[C@H](O)C(C)(C)CO)NC(=O)c1cc(F)c(F)cc1F", "note": "[MMV693183]", "values": [{"measurement": "toxicity", "setting": "3-day MTD2 rat study", "result": "no relevant toxicity was observed"}, {"measurement": "Fold Increase", "setting": "[1]; TA98, +S-9, 5 ug/plate", "result": 1.1}, {"measurement": "Mean (Revertant Numbers Per Plate)", "setting": "[1]; TA98, +S-9, 5 ug/plate", "result": 36.3}, {"measurement": "Fold Increase", "setting": "[1]; TA98, +S-9, 16 ug/plate", "result": 1.1}, {"measurement": "Mean (Revertant Numbers Per Plate)", "setting": "[1]; TA98, +S-9, 16 ug/plate", "result": 37}, {"measurement": "Fold Increase", "setting": "[1]; TA98, +S-9, 50 ug/plate", "result": 1.2}, {"measurement": "Mean (Revertant Numbers Per Plate)", "setting": "[1]; TA98, +S-9, 50 ug/plate", "result": 39.7}, {"measurement": "Fold Increase", "setting": "[1]; TA98, +S-9, 160 ug/plate", "result": 1.1}, {"measurement": "Mean (Revertant Numbers Per Plate)", "setting": "[1]; TA98, +S-9, 160 ug/plate", "result": 36.7}, {"measurement": "Fold Increase", "setting": "[1]; TA98, +S-9, 500 ug/plate", "result": 1.3}, {"measurement": "Mean (Revertant Numbers Per Plate)", "setting": "[1]; TA98, +S-9, 500 ug/plate", "result": 42.3}, {"measurement": "Fold Increase", "setting": "[1]; TA98, +S-9, 1600 ug/plate", "result": 1}, {"measurement": "Mean (Revertant Numbers Per Plate)", "setting": "[1]; TA98, +S-9, 1600 ug/plate", "result": 32.3}, {"measurement": "Fold Increase", "setting": "[1]; TA98, +S-9, 5000 ug/plate", "result": 0.8}, {"measurement": "Mean (Revertant Numbers Per Plate)", "setting": "[1]; TA98, +S-9, 5000 ug/plate", "result": 26.3}, {"measurement": "Fold Increase", "setting": "[1]; TA98, -S-9, 5 ug/plate", "result": 0.8}, {"measurement": "Mean (Revertant Numbers Per Plate)", "setting": "[1]; TA98, -S-9, 5 ug/plate", "result": 22.3}, {"measurement": "Fold Increase", "setting": "[1]; TA98, -S-9, 16 ug/plate", "result": 1.1}, {"measurement": "Mean (Revertant Numbers Per Plate)", "setting": "[1]; TA98, -S-9, 16 ug/plate", "result": 29.7}, {"measurement": "Fold Increase", "setting": "[1]; TA98, -S-9, 50 ug/plate", "result": 0.9}, {"measurement": "Mean (Revertant Numbers Per Plate)", "setting": "[1]; TA98, -S-9, 50 ug/plate", "result": 26.3}, {"measurement": "Fold Increase", "setting": "[1]; TA98, -S-9, 160 ug/plate", "result": 0.8}, {"measurement": "Mean (Revertant Numbers Per Plate)", "setting": "[1]; TA98, -S-9, 160 ug/plate", "result": 23.7}, {"measurement": "Fold Increase", "setting": "[1]; TA98, -S-9, 500 ug/plate", "result": 0.7}, {"measurement": "Mean (Revertant Numbers Per Plate)", "setting": "[1]; TA98, -S-9, 500 ug/plate", "result": 20.3}, {"measurement": "Fold Increase", "setting": "[1]; TA98, -S-9, 1600 ug/plate", "result": 0.8}, {"measurement": "Mean (Revertant Numbers Per Plate)", "setting": "[1]; TA98, -S-9, 1600 ug/plate", "result": 22.7}, {"measurement": "Fold Increase", "setting": "[1]; TA98, -S-9, 5000 ug/plate", "result": 1}, {"measurement": "Mean (Revertant Numbers Per Plate)", "setting": "[1]; TA98, -S-9, 5000 ug/plate", "result": 26.7}, {"measurement": "difference in revertant numbers vs control", "setting": "[1]; TA98, TA100", "result": "< 2", "unit": "fold"}, {"measurement": "Fold Increase", "setting": "[1]; TA100, +S-9, 5 ug/plate", "result": 0.9}, {"measurement": "Mean (Revertant Numbers Per Plate)", "setting": "[1]; TA100, +S-9, 5 ug/plate", "result": 107.3}, {"measurement": "Fold Increase", "setting": "[1]; TA100, +S-9, 16 ug/plate", "result": 1}, {"measurement": "Mean (Revertant Numbers Per Plate)", "setting": "[1]; TA100, +S-9, 16 ug/plate", "result": 122.7}, {"measurement": "Fold Increase", "setting": "[1]; TA100, +S-9, 50 ug/plate", "result": 1.1}, {"measurement": "Mean (Revertant Numbers Per Plate)", "setting": "[1]; TA100, +S-9, 50 ug/plate", "result": 128.3}, {"measurement": "Fold Increase", "setting": "[1]; TA100, +S-9, 160 ug/plate", "result": 1}, {"measurement": "Mean (Revertant Numbers Per Plate)", "setting": "[1]; TA100, +S-9, 160 ug/plate", "result": 114.7}, {"measurement": "Fold Increase", "setting": "[1]; TA100, +S-9, 500 ug/plate", "result": 1.1}, {"measurement": "Mean (Revertant Numbers Per Plate)", "setting": "[1]; TA100, +S-9, 500 ug/plate", "result": 135}, {"measurement": "Fold Increase", "setting": "[1]; TA100, +S-9, 1600 ug/plate", "result": 0.9}, {"measurement": "Mean (Revertant Numbers Per Plate)", "setting": "[1]; TA100, +S-9, 1600 ug/plate", "result": 104}, {"measurement": "Fold Increase", "setting": "[1]; TA100, +S-9, 5000 ug/plate", "result": 1}, {"measurement": "Mean (Revertant Numbers Per Plate)", "setting": "[1]; TA100, +S-9, 5000 ug/plate", "result": 115.7}, {"measurement": "Fold Increase", "setting": "[1]; TA100, -S-9, 5 ug/plate", "result": 1.1}, {"measurement": "Mean (Revertant Numbers Per Plate)", "setting": "[1]; TA100, -S-9, 5 ug/plate", "result": 99.3}, {"measurement": "Fold Increase", "setting": "[1]; TA100, -S-9, 16 ug/plate", "result": 1.1}, {"measurement": "Mean (Revertant Numbers Per Plate)", "setting": "[1]; TA100, -S-9, 16 ug/plate", "result": 94}, {"measurement": "Fold Increase", "setting": "[1]; TA100, -S-9, 50 ug/plate", "result": 1.2}, {"measurement": "Mean (Revertant Numbers Per Plate)", "setting": "[1]; TA100, -S-9, 50 ug/plate", "result": 108.3}, {"measurement": "Fold Increase", "setting": "[1]; TA100, -S-9, 160 ug/plate", "result": 1}, {"measurement": "Mean (Revertant Numbers Per Plate)", "setting": "[1]; TA100, -S-9, 160 ug/plate", "result": 86.3}, {"measurement": "Fold Increase", "setting": "[1]; TA100, -S-9, 500 ug/plate", "result": 1.1}, {"measurement": "Mean (Revertant Numbers Per Plate)", "setting": "[1]; TA100, -S-9, 500 ug/plate", "result": 93}, {"measurement": "Fold Increase", "setting": "[1]; TA100, -S-9, 1600 ug/plate", "result": 1.2}, {"measurement": "Mean (Revertant Numbers Per Plate)", "setting": "[1]; TA100, -S-9, 1600 ug/plate", "result": 102}, {"measurement": "Fold Increase", "setting": "[1]; TA100, -S-9, 5000 ug/plate", "result": 1.1}, {"measurement": "Mean (Revertant Numbers Per Plate)", "setting": "[1]; TA100, -S-9, 5000 ug/plate", "result": 93}, {"measurement": "difference in revertant numbers vs control", "setting": "[1]; TA102", "result": "< 1.5", "unit": "fold"}, {"measurement": "Fold Increase", "setting": "[1]; TA102, +S-9, 5 ug/plate", "result": 1.3}, {"measurement": "Mean (Revertant Numbers Per Plate)", "setting": "[1]; TA102, +S-9, 5 ug/plate", "result": 285}, {"measurement": "Fold Increase", "setting": "[1]; TA102, +S-9, 16 ug/plate", "result": 1.3}, {"measurement": "Mean (Revertant Numbers Per Plate)", "setting": "[1]; TA102, +S-9, 16 ug/plate", "result": 295.7}, {"measurement": "Fold Increase", "setting": "[1]; TA102, +S-9, 50 ug/plate", "result": 1.3}, {"measurement": "Mean (Revertant Numbers Per Plate)", "setting": "[1]; TA102, +S-9, 50 ug/plate", "result": 295}, {"measurement": "Fold Increase", "setting": "[1]; TA102, +S-9, 160 ug/plate", "result": 1.3}, {"measurement": "Mean (Revertant Numbers Per Plate)", "setting": "[1]; TA102, +S-9, 160 ug/plate", "result": 298.7}, {"measurement": "Fold Increase", "setting": "[1]; TA102, +S-9, 500 ug/plate", "result": 1.3}, {"measurement": "Mean (Revertant Numbers Per Plate)", "setting": "[1]; TA102, +S-9, 500 ug/plate", "result": 283}, {"measurement": "Fold Increase", "setting": "[1]; TA102, +S-9, 1600 ug/plate", "result": 1.1}, {"measurement": "Mean (Revertant Numbers Per Plate)", "setting": "[1]; TA102, +S-9, 1600 ug/plate", "result": 257}, {"measurement": "Fold Increase", "setting": "[1]; TA102, +S-9, 5000 ug/plate", "result": 0.8}]}]}
